pIC50: −log10 of the molar value. Counter-ions that a name gives are not always drawn.

Sequence of FAK (Q05397 whole entry): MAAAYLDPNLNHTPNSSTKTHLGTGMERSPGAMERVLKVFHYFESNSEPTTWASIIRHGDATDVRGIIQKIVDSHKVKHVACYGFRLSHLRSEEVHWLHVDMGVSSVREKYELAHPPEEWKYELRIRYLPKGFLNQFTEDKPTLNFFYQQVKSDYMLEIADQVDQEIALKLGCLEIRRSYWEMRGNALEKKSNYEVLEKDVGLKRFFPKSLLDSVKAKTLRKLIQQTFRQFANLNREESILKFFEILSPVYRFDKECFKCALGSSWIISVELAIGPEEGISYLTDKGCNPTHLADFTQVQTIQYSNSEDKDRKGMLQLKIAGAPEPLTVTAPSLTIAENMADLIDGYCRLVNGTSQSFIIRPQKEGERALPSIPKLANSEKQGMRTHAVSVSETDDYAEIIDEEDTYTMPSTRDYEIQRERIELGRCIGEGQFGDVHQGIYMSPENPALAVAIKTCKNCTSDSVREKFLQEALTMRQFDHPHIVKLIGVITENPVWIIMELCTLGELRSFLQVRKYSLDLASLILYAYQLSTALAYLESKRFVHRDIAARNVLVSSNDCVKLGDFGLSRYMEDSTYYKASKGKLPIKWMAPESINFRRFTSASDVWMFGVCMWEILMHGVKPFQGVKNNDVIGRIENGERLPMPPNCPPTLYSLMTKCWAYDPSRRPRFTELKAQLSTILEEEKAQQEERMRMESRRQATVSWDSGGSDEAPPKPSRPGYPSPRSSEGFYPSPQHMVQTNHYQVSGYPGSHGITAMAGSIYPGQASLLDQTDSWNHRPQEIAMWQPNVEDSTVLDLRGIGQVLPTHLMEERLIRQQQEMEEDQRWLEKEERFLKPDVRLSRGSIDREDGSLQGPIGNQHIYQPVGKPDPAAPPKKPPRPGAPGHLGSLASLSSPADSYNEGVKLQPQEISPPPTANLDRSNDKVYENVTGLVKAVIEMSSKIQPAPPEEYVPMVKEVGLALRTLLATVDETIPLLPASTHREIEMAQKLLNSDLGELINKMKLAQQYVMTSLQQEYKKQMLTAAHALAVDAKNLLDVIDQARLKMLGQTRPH

The assay addresses FAK (Homo sapiens, UniProt Q05397). The assay can be described thus: biochemical.
As usually defined, the pIC50 is the IC50 on a negative log10 scale, so that one unit is a factor of ten. The low end stands for a large IC50, the high end for a small IC50. In the case of `CCOP(=O)(O)C1CCC(c2ccc(Nc3nc(Nc4ccccc4OC)ncc3C(F)(F)F)c3c2CN(C)C3=O)CC1` (mixture of isomers) [Example 255, Ethyl hydrogen {4-[7-({2-[(2-methoxyphenyl)amino]-5-(trifluoromethyl)pyrimidin-4-yl}amino)-2-methyl-1-oxo-2,3-dihydro-1H-isoindol-4-yl]cyclohexyl}phosphonate trifluoroacetate], the pIC50 is above 6.00.

`CCOP(=O)(Cc1ccc(Nc2ncc(C(F)(F)F)c(Nc3ccc([C@H]4CC[C@@H](C(=O)O)CC4)c4c3C(=O)N(C)C4)n2)c(OC)c1)OCC` [Example 89, Cis-4-(7-{[2-({4-[(diethoxyphosphoryl)methyl]-2-methoxyphenyl}amino)-5-(trifluoromethyl)pyrimidin-4-yl]amino}-2-methyl-1-oxo-2,3-dihydro-1H-isoindol-4-yl)cyclohexanecarboxylic acid] had a pIC50 above 6.00.

`CCOP(=O)(Cc1ccc(Nc2ncc(C(F)(F)F)c(Nc3ccc([C@H]4CC[C@H](O)CC4)c4c3C(=O)N(C)C4)n2)cc1)OCC` [Example 91, Diethyl (4-{[4-{[7-(trans-4-hydroxycyclohexyl)-2-methyl-3-oxo-2,3-dihydro-1H-isoindol-4-yl]amino}-5-(trifluoromethyl)pyrimidin-2-yl]amino}benzyl)phosphonate] showed a pIC50 above 6.00.

For `CCOP(=O)(Cc1ccc(Nc2ncc(C(F)(F)F)c(Nc3ccc([C@H]4CC[C@H](O)CC4)c4c3C(=O)N(C)C4)n2)c(OC)c1)OCC` [Example 93, Diethyl (4-{[4-{[7-(trans-4-hydroxycyclohexyl)-2-methyl-3-oxo-2,3-dihydro-1H-isoindol-4-yl]amino}-5-(trifluoromethyl)pyrimidin-2-yl]amino}-3-methoxybenzyl) phosphonate hydrochloride], the pIC50 was above 6.00.

Compound `CCOP(=O)(Cc1ccc(Nc2ncc(C(F)(F)F)c(Nc3ccc([C@H]4CC[C@@H](N5CCN(C)CC5)CC4)c4c3C(=O)N(C)C4)n2)c(OC)c1)OCC` [Example 95, Diethyl (3-methoxy-4-{[4-({2-methyl-7-[cis-4-(4-methylpiperazin-1-yl)cyclohexyl]-3-oxo-2,3-dihydro-1H-isoindol-4-yl}amino)-5-(trifluoromethyl)pyrimidin-2-yl]amino}benzyl)phosphonate] showed a pIC50 above 6.00.

In the case of `CCOP(=O)(Cc1ccc(Nc2ncc(C(F)(F)F)c(Nc3ccc(-c4cnn(CCOC)c4)c4c3C(=O)N(C)C4)n2)cc1)OCC` [Example 97, Diethyl (4-{[4-({7-[1-(2-methoxyethyl)-1H-pyrazol-4-yl]-2-methyl-3-oxo-2,3-dihydro-1H-isoindol-4-yl}amino)-5-(trifluoromethyl)pyrimidin-2-yl]amino}benzyl)phosphonate], the pIC50 is above 6.00.

With `CCOP(=O)(Cc1ccc(Nc2ncc(C(F)(F)F)c(Nc3ccc(Br)cc3C(=O)NC)n2)cc1)OCC` [Example 106, Diethyl (4-{[4-{[4-bromo-2-(methylcarbamoyl)phenyl]amino}-5-(trifluoromethyl)pyrimidin-2-yl]amino}benzyl)phosphonate], the pIC50 is above 6.00.

`CCOP(=O)(Cc1ccc(Nc2ncc(C(F)(F)F)c(Nc3ccccc3C(=O)NC)n2)c(Br)c1)OCC` [Example 108, Diethyl (3-bromo-4-{[4-{[2-(methylcarbamoyl)phenyl]amino}-5-(trifluoromethyl)pyrimidin-2-yl]amino}benzyl) phosphonate]: the pIC50 was above 6.00.

Compound `CCOP(=O)(Cc1ccc(Nc2ncc(C(F)(F)F)c(Nc3ccccc3C(=O)N(C)C)n2)cc1)OCC` [Example 111, Diethyl (4-{[4-{[2-(dimethylcarbamoyl)phenyl]amino}-5-(trifluoromethyl)pyrimidin-2-yl]amino}benzyl)phosphonate] showed a pIC50 above 6.00.

For `CCOP(=O)(Cc1ccc(Nc2ncc(C(F)(F)F)c(Nc3ccccc3C(=O)N(C)C)n2)c(OC)c1)OCC` [Example 112, Diethyl (4-{[4-{[2-(dimethylcarbamoyl)phenyl]amino}-5-(trifluoromethyl)pyrimidin-2-yl]amino}-3-methoxybenzyl)phosphonate], the pIC50 is above 6.00.

`CCOP(=O)(Cc1ccc(Nc2ncc(C(F)(F)F)c(Nc3ccc(C(=O)OC)c4c3C(=O)N(C)C4)n2)cc1)OCC` [Example 118, Methyl 7-{[2-({4-[(diethoxyphosphoryl)methyl]phenyl}amino)-5-(trifluoromethyl)pyrimidin-4-yl]amino}-2-methyl-1-oxo-2,3-dihydro-1H-isoindole-4-carboxylate] gave a pIC50 above 6.00.

Turning to `CCOP(=O)(O)Cc1ccc(Nc2ncc(C(F)(F)F)c(Nc3cccc4c3C(=O)N(C)C4)n2)c(OC)c1` [Example 120, Ethyl hydrogen [3-methoxy-4-({4-[(2-methyl-3-oxo-2,3-dihydro-1H-isoindol-4-yl)amino]-5-(trifluoromethyl)pyrimidin-2-yl}amino)benzyl]phosphonate], the pIC50 is above 6.00.

On to `CCOP(=O)(Cc1ccc(Nc2ncc(C(F)(F)F)c(Nc3ccc(N4CCN5CCOCC5C4)c4c3C(=O)N(C)C4)n2)cc1)OCC` (stereo not drawn) [Example 121, Diethyl (4-{[4-{[7-(hexahydropyrazino[2,1-c][1,4]oxazin-8(1H)-yl)-2-methyl-3-oxo-2,3-dihydro-1H-isoindol-4-yl]amino}-5-(trifluoromethyl)pyrimidin-2-yl]amino}benzyl)phosphonate], for which the pIC50 is above 6.00.

Compound `CCOP(=O)(Cc1ccc(Nc2ncc(C(F)(F)F)c(Nc3ccc(N4CCN5CCOCC5C4)c4c3C(=O)N(C)C4)n2)c(OC)c1)OCC` (stereo not drawn) [Example 122, Diethyl (4-{[4-{[7-(hexahydropyrazino[2,1-c][1,4]oxazin-8(1H)-yl)-2-methyl-3-oxo-2,3-dihydro-1H-isoindol-4-yl]amino}-5-(trifluoromethyl)pyrimidin-2-yl]amino}-3-methoxybenzyl)phosphonate] had a pIC50 above 6.00.

Turning to `CCOP(=O)(Cc1ccc(Nc2ncc(C(F)(F)F)c(Nc3ccc(Br)c4ccn(C)c(=O)c34)n2)cc1)OCC` [Example 123, Diethyl [4-({4-[(5-bromo-2-methyl-1-oxo-1,2-dihydroisoquinolin-8-yl)amino]-5-(trifluoromethyl)pyrimidin-2-yl}amino)benzyl]phosphonate], the pIC50 was above 6.00.

Regarding `CCCn1cc(-c2ccc(Nc3nc(Nc4ccc(CP(=O)(OCC)OCC)cc4)ncc3C(F)(F)F)c(C(=O)NC)c2)cn1` [Example 126, Diethyl (4-{[4-{[2-(methylcarbamoyl)-4-(1-propyl-1H-pyrazol-4-yl)phenyl]amino}-5-(trifluoromethyl)pyrimidin-2-yl]amino}benzyl)phosphonate], the pIC50 is above 6.00.

`CCOP(=O)(Cc1ccc(Nc2ncc(C(F)(F)F)c(Nc3ccc(-c4cnn(CC(C)(C)O)c4)cc3C(=O)NC)n2)cc1)OCC` [Example 127] showed a pIC50 above 6.00.

As to `CCOP(=O)(Cc1cc(OC)c(Nc2ncc(C(F)(F)F)c(Nc3ccccc3C(=O)NC)n2)cc1F)OCC` [Example 130, Diethyl (2-fluoro-5-methoxy-4-{[4-{[2-(methylcarbamoyl)phenyl]amino}-5-(trifluoromethyl)pyrimidin-2-yl]amino}benzyl)phosphonate], the pIC50 is above 6.00.
